# Measured values taken from patent US4495189A, “Condensed pyrimidines” (priority 1975, dated 1985).
# Where two headings read alike, the source gives them in different places.
# Key:
# in vivo [1] = conditions: rat, po
# PGE1 [2] = test: Oedema inhibition, inflammation caused by prostaglandin E1; type: in vivo
# From the text: (§1) Thus, it is appropriate to test the effectiveness of a representative compound of the invention in the inflammation response caused by prostaglandin E1 and E2, particularly from the point of view of the vessel wall permeability, which plays an important role in the inflammation.
# in vivo [3] = conditions: mouse, po
# PGE2 [4] = test: Oedema inhibition, inflammation caused by prostaglandin E2; type: in vivo
# From the text: as §1
# PGE1 [5] = test: Vessel wall permeability inhibition, prostaglandin E1; type: in vivo
# From the text: as §1
# PGE2 [6] = test: Vessel wall permeability inhibition, prostaglandin E2; type: in vivo
# From the text: as §1
# [7] = system: collagen induced thrombocyte aggregation; test: Inhibition of collagen induced thrombocyte aggregation (in vitro); type: cell-based
# From the text: In Table 6 the inhibition of collagen induced thrombocyte aggregation under in vitro conditions is shown.
# mice = test: Analgesic activity on "Writing" test, on mice; type: in vivo; conditions: Mus musculus
# From the text: (§2) Acute toxicity, analgesic and platelet aggregation inhibiting activity of "CH-105" was compared with the same activities of RIMAZOLIUM. RIMAZOLIUM is a commercial product, which is a quaternary salt chemically, but exerts its activity as a tautomeric enamine [Arzneimittel Forschung 21, 717-719 and 719-727 (1971)].
# rat paw oedema = test: Antiphlogistic activity, rat paw oedema method (Domenju); type: in vivo
# Description: The antiphlogistic activity was tested by the rat paw oedema method (Domenju, R: Ann. Univ. Saraviensis 1,317, 1953). The compound were compared with the currently used therapeutic agents Phenylbutazone, aspirin, Indomethacin, Mebron and Amidazophenum.
# rats [8] = test: Analgesic activity on rats, hot plate, per os; type: in vivo; conditions: Rattus norvegicus, po
# From the text: as §2
# platelet aggregation = test: Platelet aggregation inhibiting activity, comparison of CH-105 and Rimazolium; conditions: same conditions for CH-105 and Rimazolium
# From the text: as §2
# rats [9] = test: Chronic toxicity test, ulcerogenicity in rats; type: in vivo; conditions: one-month old rats, 50 mg/kg, chronic toxicity tests
# [10] = Acute toxicity on rats (i.v.); conditions: rat, in vivo, iv
# From the text: as §2
# [11] = Pharmacological and toxicological tests (summary)
# [12] = Antiphlogistic activity, method of Northove; type: in vivo; conditions: 100 mg/kg
# From the text: Favorable antiphlogistic properties were found in tests carried out by the method of Northove.
structure (smiles),measurement,setting,value
CC(=O)Oc1ccccc1C(=O)O [Aspirin],LD50,in vivo [1],1600 mg/kg
same,"Oedema inhibition %, PGE1",PGE1 [2]; 200 mg/kg,41%
same,"Oedema inhibition %, PGE1",PGE1 [2]; 500 mg/kg,45%
same,LD50,in vivo [3],1100 mg/kg
same,"Oedema inhibition %, PGE2",PGE2 [4]; 200 mg/kg,20%
same,"Oedema inhibition %, PGE2",PGE2 [4]; 500 mg/kg,54%
same,"Vessel wall permeability inhibition %, PGE1",PGE1 [5]; 200 mg/kg,30%
same,"Vessel wall permeability inhibition %, PGE1",PGE1 [5]; 500 mg/kg,42%
same,"Vessel wall permeability inhibition %, PGE2",PGE2 [6]; 200 mg/kg,25%
same,"Vessel wall permeability inhibition %, PGE2",PGE2 [6]; 500 mg/kg,50%
"CC1CCC=C2N(C)C=C(C(N)=O)C(=O)N21 (centres unmarked) [CH-105, 1,6-dimethyl-3-carbamoyl-4-oxo-1,6,7,8-tetrahydro-4H-pyrido[1,2-a]pyrimidine]",Inhibition of collagen induced thrombocyte aggregation in %,[7]; 1 × 10^-3 mole,100%
same,Inhibition of collagen induced thrombocyte aggregation in %,[7]; 1 × 10^-4 mole,90%
same,LD50,in vivo [1],750 mg/kg
same,"Oedema inhibition %, PGE1",PGE1 [2]; 200 mg/kg,30%
same,"Oedema inhibition %, PGE1",PGE1 [2]; 500 mg/kg,42%
same,activity as an oedema inhibitor or a vessel wall permeability reducing agent,"PGE1 [2]; data of Table 2, PGE1 and PGE2, compared with aspirin","activity of the same range as the known active prostaglandinantagonist, aspirin"
same,ED50,mice,210 µmol/kg
same,"Oedema inhibiting effect in %, 1 hour after the administration of the substance",rat paw oedema; 100 mg/kg,25%
same,"Oedema inhibiting effect in %, 2 hours after the administration of the substance",rat paw oedema; 100 mg/kg,34%
same,"Oedema inhibiting effect in %, 1 hour after the administration of the substance",rat paw oedema; 300 mg/kg,45%
same,"Oedema inhibiting effect in %, 2 hours after the administration of the substance",rat paw oedema; 300 mg/kg,52%
same,"Oedema inhibiting effect in %, 24 hours after the administration of the substance",rat paw oedema; 300 mg/kg,8%
same,LD50,in vivo [3],975 mg/kg
same,ED50,rats [8],410 µmol/kg
same,"Oedema inhibition %, PGE2",PGE2 [4]; 200 mg/kg,31%
same,"Oedema inhibition %, PGE2",PGE2 [4]; 500 mg/kg,45%
same,platelet aggregation inhibiting activity,platelet aggregation,excellent platelet aggregation inhibiting activity
same,ulcerogenicity,rats [9],not ulcerogenic
same,"Vessel wall permeability inhibition %, PGE1",PGE1 [5]; 200 mg/kg,40%
same,"Vessel wall permeability inhibition %, PGE1",PGE1 [5]; 500 mg/kg,40%
same,LD50,[10],960 µmol/kg
same,ED50,modified writhing test,70 mg/kg
same,Therapeutic Index,modified writhing test,14
same,"Vessel wall permeability inhibition %, PGE2",PGE2 [6]; 200 mg/kg,35%
same,"Vessel wall permeability inhibition %, PGE2",PGE2 [6]; 500 mg/kg,50%
same,"antiphlogistic activity, analgesic activity and therapeutic index (in words)",[11],"significant antiphlogistic activity, analgesic activity and have a favorable therapeutic index"
same,"Antiphlogistic activity (%), 1 hour",[12],40%
same,"Antiphlogistic activity (%), 2 hours",[12],55%
same,"Antiphlogistic activity (%), 24 hours",[12],30%
"CC1CCC=C2N(C)C=C(C(=O)NC(C)(C)C)C(=O)N21 (centres unmarked) [Example 5, 1,6-dimethyl-3-(N-tert-butyl-carbamoyl)-4-oxo-1,6,7,8-tetrahydro-4H-pyrido(1,2a)pyrimidine]",Inhibition of collagen induced thrombocyte aggregation in %,[7]; 1 × 10^-3 mole,99%
same,Inhibition of collagen induced thrombocyte aggregation in %,[7]; 1 × 10^-4 mole,85%
same,"Oedema inhibiting effect in %, 2 hours after the administration of the substance",rat paw oedema; 125 mg/kg,50%
"CC1CCC=C2N(C)C=C(C(=O)Nc3ccccc3)C(=O)N21 (centres unmarked) [Example 6, 1,6-dimethyl-3-(N-phenylcarbamoyl)-4-oxo-1,6,7,8-tetrahydro-4H-pyrido(1,2a)pyrimidine]",Inhibition of collagen induced thrombocyte aggregation in %,[7]; 1 × 10^-3 mole,56%
same,Inhibition of collagen induced thrombocyte aggregation in %,[7]; 1 × 10^-4 mole,29%
same,"Oedema inhibiting effect in %, 2 hours after the administration of the substance",rat paw oedema; 500 mg/kg,53%
"CNC(=O)C1=CN(C)C2=CCCC(C)N2C1=O (centres unmarked) [Example 7, 1,6-dimethyl-3-(N-methyl-carbamoyl)-4-oxo-1,6,7,8-tetrahydro-4H-pyrido(1,2a)pyrimidine]",Inhibition of collagen induced thrombocyte aggregation in %,[7]; 1 × 10^-3 mole,100%
same,Inhibition of collagen induced thrombocyte aggregation in %,[7]; 1 × 10^-4 mole,95%
same,"Oedema inhibiting effect in %, 2 hours after the administration of the substance",rat paw oedema; 500 mg/kg,60%
"CC1CCC=C2N(C)C=C(C(=O)NCCC(c3ccccc3)c3ccccc3)C(=O)N21 (centres unmarked) [Example 9, 1,6-dimethyl-3-[N-(3,3-diphenyl-propyl)-carbamoyl]-4-oxo-1,6,7,8-tetrahydro-4H-pyrido(1,2a)pyrimidine]",Inhibition of collagen induced thrombocyte aggregation in %,[7]; 1 × 10^-3 mole,70%
same,Inhibition of collagen induced thrombocyte aggregation in %,[7]; 1 × 10^-4 mole,60%
"CC1CCC=C2N(C)C=C(C(=O)NCCc3ccccc3)C(=O)N21 (centres unmarked) [Example 11, 1,6-dimethyl-3-[N-(2-phenyl-ethyl)-carbamoyl]-4-oxo-1,6,7,8-tetrahydro-4H-pyrido(1,2a)pyrimidine]",Inhibition of collagen induced thrombocyte aggregation in %,[7]; 1 × 10^-3 mole,96%
same,Inhibition of collagen induced thrombocyte aggregation in %,[7]; 1 × 10^-4 mole,92%
same,"Oedema inhibiting effect in %, 2 hours after the administration of the substance",rat paw oedema; 125 mg/kg,38%
COc1ccc2c(c1)c(CC(=O)O)c(C)n2C(=O)c1ccc(Cl)cc1 [Indomethacin],ED50,modified writhing test,2.4 mg/kg
same,Therapeutic Index,modified writhing test,12
COc1cc(C)nc(-n2nc(C)cc2OC)n1 [Mebron],"Oedema inhibiting effect in %, 1 hour after the administration of the substance",rat paw oedema; 100 mg/kg,8%
same,"Oedema inhibiting effect in %, 2 hours after the administration of the substance",rat paw oedema; 100 mg/kg,22%
same,"Oedema inhibiting effect in %, 1 hour after the administration of the substance",rat paw oedema; 300 mg/kg,25%
same,"Oedema inhibiting effect in %, 2 hours after the administration of the substance",rat paw oedema; 300 mg/kg,25%
same,"Oedema inhibiting effect in %, 24 hours after the administration of the substance",rat paw oedema; 300 mg/kg,3%
same,Therapeutic Index,in vivo,4.3
same,ED50,modified writhing test,380 mg/kg
same,"Antiphlogistic activity (%), 1 hour",[12],23%
same,"Antiphlogistic activity (%), 2 hours",[12],23%
same,"Antiphlogistic activity (%), 24 hours",[12],0%
CCCCC1C(=O)N(c2ccccc2)N(c2ccccc2)C1=O [Phenylbutazone],"Oedema inhibition %, PGE1",PGE1 [2]; 100 mg/kg,35%
same,"Oedema inhibition %, PGE1",PGE1 [2]; 200 mg/kg,15%
same,"Oedema inhibiting effect in %, 1 hour after the administration of the substance",rat paw oedema; 100 mg/kg,2%
same,"Oedema inhibiting effect in %, 2 hours after the administration of the substance",rat paw oedema; 100 mg/kg,2%
same,"Oedema inhibiting effect in %, 1 hour after the administration of the substance",rat paw oedema; 200 mg/kg,11%
same,"Oedema inhibiting effect in %, 2 hours after the administration of the substance",rat paw oedema; 200 mg/kg,10%
same,"Oedema inhibiting effect in %, 24 hours after the administration of the substance",rat paw oedema; 200 mg/kg,3%
same,"Oedema inhibition %, PGE2",PGE2 [4]; 100 mg/kg,10%
same,"Oedema inhibition %, PGE2",PGE2 [4]; 200 mg/kg,28%
same,"Vessel wall permeability inhibition %, PGE1",PGE1 [5]; 100 mg/kg,10%
same,"Vessel wall permeability inhibition %, PGE1",PGE1 [5]; 200 mg/kg,20%
same,ED50,modified writhing test,63 mg/kg
same,"Vessel wall permeability inhibition %, PGE2",PGE2 [6]; 100 mg/kg,5%
same,"Vessel wall permeability inhibition %, PGE2",PGE2 [6]; 200 mg/kg,20%
same,"Antiphlogistic activity (%), 1 hour",[12],13%
same,"Antiphlogistic activity (%), 2 hours",[12],20%
same,"Antiphlogistic activity (%), 24 hours",[12],0%
"CCOC(=O)c1c[n+](C)c2n(c1=O)C(C)CCC2 (centres unmarked) [Rimazolium, 1,6-dimethyl-3-carbethoxy-4-oxo-6,7,8,9-tetrahydrohomopyrimidazol-methylsulfate]",ED50,mice,1050 µmol/kg
same,ED50,rats [8],620 µmol/kg
same,platelet aggregation inhibiting activity,platelet aggregation,practically ineffective
same,LD50,[10],610 µmol/kg
